# Experimental data as given in patent US7307102B2, “Method of preventing or treating estrogen-dependent diseases and disorders” (Duke University, priority 1997, dated 2007).
# Legend:
# [1] = Total serum cholesterol in ovariectomized rats; format: in vivo, rat; settings: OVX rats, 28 days, lowest concentration tested, FIG. 4
# Description: (§1) Animal preparation. […] At sacrifice, animals were euthanized with C02, body weights were recorded and the uteri were removed and weighed. Uterus, vagina and mammary tissue were fixed in 10% neutral buffered formalin. Samples for histologic processing were taken from the mid-point of each uterine horn. Tissue samples were embedded in paraffin, stained with haematoxylin and eosin and evaluated microscopically. Lumbar vertebrae and both left and right tibiae were excised. Total blood cholesterol was measured (Roche Biomedical Laboratories).
# [2] = test system: MCF-7 breast cancer tumors; test: Antiestrogen treatment of MCF-7 breast cancer tumors in nude mice (Example 4); format: in vivo, mouse; settings: two highest doses of GW5638 (0.6 mg, 1.0 mg) vs 1.0 mg tamoxifen, FIG. 9
# Description: FIG. 9. Effect of anti-estrogen treatment on MCF-7 breast cancer tumors in nude mice.
# This study was conducted using tumor cells derived from the MCF-7 breast cancer line. This line is estrogen and progesterone receptor positive, dependent upon hormone and sensitive to antihormones. The tumor cells were inoculated into the flank of ovariectomized, athymic BALB/c Urd nunu mice. The mice were supplemented with slow release estrogen pellets. Animals were given subcutaneous daily injections as indicated below:
# Group 1: control (corn oil)
# Using calipers, tumors were measured in 2 dimensions, where tumor area=½×w/2×π.
# ER-TAF1 = test: C3 promoter-luciferase cotransfection assay in HepG2 cells, ER-TAF1 (AF-2 disrupted); format: cell-based, human
# Excerpt: FIGS. 1A and 1B. […] The human C3 promoter (−1807 to +58) fused to the firefly luciferase reporter gene was transfected along with an expression plasmid containing (FIG. 1A) the wild-type human estrogen receptor (ERwt), or (FIG. 1B) a mutated ER in which the AF-2 function had been disrupted (ER-TAFl) into HepG2 cells and tested for transcriptional activation in the presence of increasing concentrations of ER-modulator as indicated. Transfections were normalized for efficiency and cell number by cotransfecting an expression plasmid containing β-galactosidase. The normalized response was obtained by dividing light units by the activity of β-galactosidase as measured in an enzymatic assay. Triplicate transfections were performed. The data shown are representative of multiple experiments performed under similar conditions.
# FIGS. 2A-2C. […] FIG. 2A. […] FIG. 2B. […] FIG. 2C. […] Transfections were normalized for efficiency and cell number by cotransfecting an expression plasmid containing β-galactosidase. The normalized response was obtained by dividing light units by the activity of β-galactosidase as measured in an enzymatic assay. Representative assays are shown in which triplicate transfections were performed. Error bars represent the standard error of the mean (SEM).
# HepG2 cells were maintained in Modified Eagles Medium (MEM) (Life Technologies, Grand Island, N.Y.) plus 10% Fetal Calf Serum (FCS) (Life Technologies). Cells were plated in 24 well plates (coated with gelatin) 24 hours prior to transfection. DNA was introduced into the cells using Lipofectin (Life Technologies). Briefly, triplicate transfections were performed using 3 μg of total DNA. For standard transfections, 500 ng of pCMV-β-Gal (normalization vector), 1500 ng reporter (variable) and 1000 ng receptor (pRST7-hER (Dana et al, Mol. Endocrinol. 8:1193-1207 (1994)) were used for each triplicate. Incubation of the cells with Lipofectin proceeded for 3 hrs, at which time media was removed, cells were washed with PBS and then induced with the appropriate hormone diluted in phenol red-free media containing 10% charcoal stripped CS (Cyclone Inc.). Incubation with hormone continued for 48 hrs, after which cells were lysed and assayed for luciferase and β-galactosidase activity as previously described (Norris et al, JBC 270:22777-22782 (1995)).
# A series of in vitro screens have been developed that permit the classification of ER-modulators into four mechanistically distinct groups (Tzukerman et al, Mol. Endocrinol. 8:21-30 (1994)). […] Using these assays, it has been possible to derive “fingerprints” of known ER-modulators (McDonnell et al, Mol. Endocrinol. 9:659-669 (1995)).
# Subsequently, the transfected cells were assayed for luceriferase and β-galactosidase activity. Each data point in this experiment represents the average of triplicate determinations of the transcriptional activity under given experimental conditions.
# [3] = Uterine wet weight, body weight and uterine histology in ovariectomized rats, 28 day treatment; format: in vivo, rat
# Description: FIGS. 8A-8D. […] Photographs were taken at 150× magnification and subsequently enlarged to a final magnification of 600×.
# as §1
# In addition to measurements of uterine wet weight, a histological examination of the uteri harvested from the same animals was performed (FIGS. 7A-7F (low magnification) and FIGS. 8A-8D (high magnification)).
# [4] = Uterotrophic assay in immature rats
# Description: FIG. 5. […] The data shown represent the mean value (±SEM).
# Twenty-one day old female Sprague-Dawley rats (30-35 gms) were obtained from Harlan or Taconic Laboratories. Animals were sorted randomly into treatment groups of five, and average weights were recorded for each treatment group. Weights were recorded on each treatment day. […] On day of dosing, drug was diluted in 0.5% methyl cellulose, viscosity of 2% at 25° C.:400 centipoises (Sigma, St. Louis, Mo.)). Oral dosing by gavage was based on a total volume of 10 ml/kg body weight. […] Subcutaneous dosing was based on a total of 2 ml/kg body weight. […] On day 4, animals were sacrificed by C02 asphyxiation, body weights were obtained and uteri were removed, blotted and weighed. Data were expressed as uterine weight/body weight.
# In this assay, uterine wet weight was used as a measure of ER-agonist activity in this tissue (FIG. 5).
# MCF-7/LCC2 = test: LCC2 study, MCF-7/LCC2 tumors in nude mice; format: in vivo, mouse; settings: after 8 weeks, 1.0 mg every three days, FIG. 11
# Description: This experiment was conducted to determine the ability of GW5638 to retard the growth of this cell line in nude mice relative to control or tamoxifen treated tumors.
# 40 OVX mice were prepared to accept cells and grouped as follows:
# Control animals received nothing and groups 3 and 4 received 0.1 ml injections in corn oil every three days. Tumors were measured Q3 days with calipers, and the area calculated as follows: Area=½×w/2×π.
# [5] = Bone mineral density in ovariectomized rats (DEXA, pQCT); format: in vivo, rat; settings: oral, 28 days
# Description: FIGS. 3A and 3B. […] FIG. 3A. […] FIG. 3B.
# as §1
structure (smiles),measurement,setting,value
CC/C(=C(\c1ccccc1)c1ccc(/C=C/C(=O)O)cc1)c1ccccc1 [GW5638],total serum cholesterol level,[1],as effective as estradiol in decreasing serum cholesterol levels
same,effect on tumors compared with tamoxifen,[2],no significant difference
same,inhibition of the partial agonist activity of raloxifene on ER-TAF1,ER-TAF1; ER-TAF1,inhibited
same,inhibition of estradiol- and tamoxifen-induced ER-TAF1 transcriptional activity,"ER-TAF1; ER-TAF1, FIG. 2B",capable of inhibiting
same,agonist activity on ER-TAF1,"ER-TAF1; ER-TAF1, compound alone, FIG. 1B",functionally inactive
same,uterotrophic activity (uterine wet weight),"[3]; 90-day old OVX rats, 28 days, doses up to three times that required for bone protection, FIG. 6",minimal uterotrophic activity
same,total body weight versus sham operated animals,"[3]; OVX rats, 28 days",no significant differences
same,"uterine epithelial cells, histology","[3]; OVX rats, 28 days",dose-related hypertrophy
same,"uterine stroma, histology","[3]; OVX rats, 28 days",marginal increase in intercellular connective tissue and ground substance
same,stromal response and eosinophilic infiltration at the highest doses,"[3]; OVX rats, highest doses",less than observed in estradiol treated rats
same,epithelial hypertrophy at the highest doses,"[3]; OVX rats, highest doses (3-fold higher than required for bone protection)",comparable to that of estradiol treated uteri
same,inhibition of the agonist activity of estradiol in the uterus,"[4]; 21 day old immature rats, in the presence of estradiol",could completely inhibit the agonist activity of estradiol
same,uterotrophic activity at 10 μm/kg/d,"[4]; rat, in vivo, po",inactive
same,tumor growth,MCF-7/LCC2,equally inhibit growth of this tumor
same,"bone mineral density, lumbar spine","[5]; 90-day old OVX rats, FIG. 3A",dose-dependent bone protective activity
same,tibial BMD,"[5]; OVX rats, FIG. 3B",effective at maintaining total bone mass
same,dose at which bone protection is as effective as estradiol,"[5]; lumbar spine BMD, OVX rats, 3 μmol/kg(1 mg/kg)",3 µmol/kg
